Data from BindingDB's records for doi:10.1021/acs.jmedchem.9b02176 (Glaxosmithkline, 2020).

Columns and labels:
[1] = Inhibition of NS5A in HCV genotype 1a infected in […] cells assessed as reduction in viral replication incubated for 48 hrs by luciferase reporter gene assay
[2] = Inhibition of NS5A in HCV genotype 1b infected in […] cells assessed as reduction in viral replication incubated for 48 hrs by luciferase reporter gene assay
[3] = Inhibition of NS5A in HCV genotype 2a con infected in […] cells assessed as reduction in viral replication incubated for 48 hrs by luciferase reporter gene assay
[4] = Inhibition of NS5A in HCV genotype 3a con infected in […] cells assessed as reduction in viral replication incubated for 48 hrs by luciferase reporter gene assay
[5] = Inhibition of NS5A in patient-derived HCV genotype 2a infected in […] cells assessed as reduction in viral replication incubated for 48 hrs by luciferase reporter gene assay
[6] = Inhibition of NS5A in patient-derived HCV genotype 3a infected in […] cells assessed as reduction in viral replication incubated for 48 hrs by luciferase reporter gene assay

EC50 [1] [nM] | EC50 [2] [nM] | EC50 [3] [nM] | EC50 [4] [nM] | EC50 [5] [nM] | EC50 [6] [nM] | SMILES
0.013 | 0.006 | 0.97 | – | – | – | COC(=O)N[C@H](C(=O)N1[C@H](c2ncc(-c3ccc4c(c3)-c3ccc(-c5cnc([C@@H]6C[C@@H]7CCC[C@@H]7N6C(=O)[C@@H](NC(=O)OC)[C@@H](C)O)[nH]5)cc3-4)[nH]2)C[C@@H]2CCC[C@@H]21)C(C)C
0.01 | 0.008 | 0.115 | 0.02 | 0.664 | 0.003 | COC(=O)N[C@H](C(=O)N1[C@H](c2ncc(-c3ccc4c(c3)-c3ccc(-c5cnc([C@@H]6C[C@@H]7CCC[C@@H]7N6C(=O)[C@@H](NC(=O)OC)[C@@H](C)OC)[nH]5)cc3-4)[nH]2)C[C@@H]2CCC[C@@H]21)[C@@H](C)OC
0.012 | 0.007 | – | – | – | – | COC(=O)N[C@H](C(=O)N1[C@H](c2ncc(-c3ccc4c(c3)Oc3ccc(-c5cnc([C@@H]6C[C@@H]7CCC[C@@H]7N6C(=O)[C@@H](NC(=O)OC)[C@@H](C)OC)[nH]5)cc3O4)[nH]2)C[C@@H]2CCC[C@@H]21)[C@@H](C)OC
0.029 | 0.017 | – | – | – | – | COC(=O)N[C@H](C(=O)N1[C@H](c2ncc(-c3ccc4c(c3)C(F)(F)c3cc(-c5cnc([C@@H]6C[C@@H]7CCC[C@@H]7N6C(=O)[C@@H](NC(=O)OC)[C@@H](C)OC)[nH]5)ccc3-4)[nH]2)C[C@@H]2CCC[C@@H]21)[C@@H](C)OC
0.014 | 0.008 | 0.188 | – | 1.03 | 0.006 | COC(=O)N[C@H](C(=O)N1[C@H](c2ncc(-c3ccc4c(c3)-c3ccc(-c5cnc([C@@H]6C[C@@H]7CCC[C@@H]7N6C(=O)[C@@H](NC(=O)OC)[C@@H](C)OC)[nH]5)cc3-4)[nH]2)C[C@@H]2CCC[C@@H]21)[C@@H](C)O
0.03 | 0.02 | – | – | – | – | COC(=O)N[C@H](C(=O)N1[C@H](c2ncc(-c3ccc4c(c3)Cc3ccc(-c5cnc([C@@H]6C[C@@H]7CCC[C@@H]7N6C(=O)[C@@H](NC(=O)OC)[C@@H](C)OC)[nH]5)cc3C4)[nH]2)C[C@@H]2CCC[C@@H]21)[C@@H](C)OC
0.148 | 0.028 | – | – | – | – | COC(=O)N[C@H](C(=O)N1[C@H](c2ncc(-c3ccc4c5ccc(-c6cnc([C@@H]7C[C@@H]8CCC[C@@H]8N7C(=O)[C@@H](NC(=O)OC)[C@@H](C)OC)[nH]6)cc5n(C)c4c3)[nH]2)C[C@@H]2CCC[C@@H]21)[C@@H](C)OC
0.041 | 0.022 | – | – | – | – | COC(=O)N[C@H](C(=O)N1[C@H](c2ncc(-c3ccc4c(c3)Cc3cc(-c5cnc([C@@H]6C[C@@H]7CCC[C@@H]7N6C(=O)[C@@H](NC(=O)OC)[C@@H](C)OC)[nH]5)ccc3-4)[nH]2)C[C@@H]2CCC[C@@H]21)[C@@H](C)OC
0.017 | 0.015 | – | – | – | – | COC(=O)N[C@H](C(=O)N1[C@H](c2ncc(-c3ccc4c(c3)CCc3cc(-c5cnc([C@@H]6C[C@@H]7CCC[C@@H]7N6C(=O)[C@@H](NC(=O)OC)[C@@H](C)OC)[nH]5)ccc3-4)[nH]2)C[C@@H]2CCC[C@@H]21)[C@@H](C)OC
0.081 | 0.028 | – | – | – | – | COC(=O)N[C@H](C(=O)N1[C@H](c2ncc(-c3ccc4c(c3)S(=O)(=O)c3cc(-c5cnc([C@@H]6C[C@@H]7CCC[C@@H]7N6C(=O)[C@@H](NC(=O)OC)[C@@H](C)OC)[nH]5)ccc3-4)[nH]2)C[C@@H]2CCC[C@@H]21)[C@@H](C)OC
0.01 | – | 4.52 | – | – | – | COC(=O)N[C@H](C(=O)N1[C@H](c2ncc(-c3ccc4c(c3)-c3ccc(-c5cnc([C@@H]6C[C@@H]7CCC[C@@H]7N6C(=O)[C@@H](NC(=O)OC)C(C)C)[nH]5)cc3-4)[nH]2)C[C@@H]2CCC[C@@H]21)C(C)C

Second part, the compound before the results:

SMILES | EC50 [1] [nM] | EC50 [2] [nM] | EC50 [3] [nM] | EC50 [4] [nM] | EC50 [5] [nM] | EC50 [6] [nM]
COC(=O)N[C@H](C(=O)N1CCC[C@H]1c1ncc(-c2ccc3c(c2)-c2ccc(-c4cnc([C@@H]5C[C@@H]6CCCC[C@@H]6N5C(=O)[C@@H](NC(=O)OC)C(C)C)[nH]4)cc2-3)[nH]1)C(C)C | 0.009 | – | 12.2 | – | – | –
COC(=O)N[C@H](C(=O)N1CCC[C@H]1c1ncc(-c2ccc3c(c2)-c2ccc(-c4cnc([C@@H]5CCCN5C(=O)[C@@H](NC(=O)OC)C(C)C)[nH]4)cc2-3)[nH]1)C(C)C | 0.044 | 0.008 | 32 | < 0.025 | 48.8 | 0.018
CN(C)[C@@H](C(=O)N1CCC[C@H]1c1ncc(-c2ccc3c(c2)-c2ccc(-c4cnc([C@@H]5CCCN5C(=O)[C@@H](c5ccccc5)N(C)C)[nH]4)cc2-3)[nH]1)c1ccccc1 | 0.248 | 0.081 | 0.327 | – | – | –
COC(=O)N[C@@H](CO)C(=O)N1[C@H](c2ncc(-c3ccc4c(c3)-c3ccc(-c5cnc([C@@H]6C[C@@H]7CCC[C@@H]7N6C(=O)[C@@H](NC(=O)OC)C(C)C)[nH]5)cc3-4)[nH]2)C[C@@H]2CCC[C@@H]21 | 0.02 | – | 4.37 | – | – | –
COC(=O)N[C@H](C(=O)N1CCC[C@H]1c1ncc(-c2ccc3c(c2)-c2ccc(-c4cnc([C@@H]5CCCN5C(=O)[C@@H](c5ccccc5)N(C)C)[nH]4)cc2-3)[nH]1)C(C)C | 0.053 | 0.014 | 1.47 | – | – | –
COC(=O)N[C@H](C(=O)N1[C@H](c2ncc(-c3ccc4c(c3)-c3ccc(-c5cnc([C@@H]6C[C@@H]7CCC[C@@H]7N6C(=O)[C@@H](NC(=O)OC)[C@@H](C)O)[nH]5)cc3-4)[nH]2)C[C@@H]2CCC[C@@H]21)[C@@H](C)O | 0.011 | – | 0.141 | 0.018 | 1.06 | 0.005
COC(=O)N[C@H](C(=O)N1[C@H](c2ncc(-c3ccc4c(c3)-c3ccc(-c5cnc([C@@H]6C[C@@H]7CCCC[C@@H]7N6C(=O)[C@@H](NC(=O)OC)C(C)C)[nH]5)cc3-4)[nH]2)C[C@@H]2CCCC[C@@H]21)C(C)C | 0.02 | – | 3.33 | – | – | –
COC(=O)N[C@H](C(=O)N1[C@H](c2ncc(-c3ccc4c(c3)-c3ccc(-c5cnc([C@@H]6C[C@@H]7CCC[C@@H]7N6C(=O)[C@@H](NC(=O)OC)[C@H](C)O)[nH]5)cc3-4)[nH]2)C[C@@H]2CCC[C@@H]21)[C@H](C)O | 0.302 | 0.01 | 35.1 | – | – | –
COC(=O)N[C@H](C(=O)N1CCC[C@H]1c1nc(-c2ccc(-c3ccc(-c4c[nH]c([C@@H]5CCCN5C(=O)[C@@H](NC(=O)OC)C(C)C)n4)cc3)cc2)c[nH]1)C(C)C [BMS-790052] | 0.032 | 0.008 | 52.8 | 0.412 | 49.4 | 0.115
COC(=O)N[C@@H](CO)C(=O)N1[C@H](c2ncc(-c3ccc4c(c3)-c3ccc(-c5cnc([C@@H]6C[C@@H]7CCC[C@@H]7N6C(=O)[C@H](CO)NC(=O)OC)[nH]5)cc3-4)[nH]2)C[C@@H]2CCC[C@@H]21 | 0.055 | 0.009 | 8.91 | – | – | –
